{
  "source": "patent US12029793B2",
  "about": "“pH low insertion peptide targeted delivery of potent cytotoxic compounds” (University of Rhode Island Board of Trustees, priority 2019, dated 2024)",
  "key": {"[1]": {"test_system": "panel of urinary bladder cancer cell lines", "assay": "Cell viability on panel of urinary bladder cancer cell lines (summary statements)", "assay_type": "cell-based", "conditions": "amanitin alone, two hours, concentrations up to 2 μM", "experimental": "The cytotoxic and highly polar agents, like amanitin, may be especially effective in topical applications.\nCancer cells were loaded in the wells of 96-well plates (5,000 cells/well) and incubated overnight. The standard growth medium was replaced with medium without FBS, at pH 6.0 or 7.4, containing increasing amounts of pHLIP-S-S-amanitin (from 0 to 2.0 μM). The pH 6.0 medium was prepared by mixing 13.3 g of dry DMEM in 1 L of deionized water. After two-hour incubation with the pHLIP-S-S-amanitin, the construct was removed and replaced with standard growth medium. […] Cell viability was assessed after 48 hours using the colorimetric CellTiter 96 AQueous One Solution Cell Proliferation Assay by absorption measurement at 490 nm (FIG. 20B presents an example of the data obtained on SCaBER squamous cell carcinoma).\nThere was no difference in the viability of cells incubated with media, without construct, at pH 7.4 and pH 6.0; therefore, the role of pH was excluded from the consideration. Therapeutic index (TI) was calculated according to the equation: […]\nTable 8 below contains EC50 values obtained for the treatment at pH 7.4 and pH 6.0 and calculated therapeutic index, which clearly indicated a pH-dependent cell action of pHLIP-S-S-amanitin. […]"}, "[2]": {"test_system": "HeLa human cervical tumors", "assay": "Tumor weight after IP treatment with pHLIP-S-S-calicheamicin", "assay_type": "in vivo, female athymic nude mice", "conditions": "multiple IP injections once in 3-4 days, total ~1.5 mg/kg, vs non-treated control", "experimental": "FIG. 21C depicts box plot presenting mean (filled squares), median, 25 and 75 percentiles (box) and standard deviation values of tumor weights after IP and IT treatment with pHLIP-S-S-calicheamicin compared to the control (non-treated) group. P-level was calculated using two-tailed test.\nCalicheamicin modified with SPDP was synthesized and purified by Cfm, GmbH (FIG. 21A). Calicheamicin-SPDP was used to conjugate with Cys residue of pHLIP® peptide's membrane-inserting end to obtain pHLIP-S-S-calicheamicin. The pHLIP® peptide used in the study: […] (SEQ ID NO: 3) was prepared by solid-phase synthesis. Purification of the pHLIP-S-S-calicheamicin was conducted using RP-HPLC (the gradient: 10 mM TEAA buffer and acetonitrile), followed by lyophilization. The construct purity and identity was established by analytical RP-HPLC and surface-enhanced laser desorption/ionization time of flight (SELDI-TOF) mass spectroscopy, respectively. Construct concentration was calculated by absorbance at 280 nm for pHLIP® peptide with correction on absorbance of calicheamicin. pHLIP-S-S-calicheamicin dissolved in PBS was given as multiple intraperitoneal (IP) or intratumoral (IT) injections (once in 3-4 days) into mice bearing HeLa human cervical tumors in flank of female athymic nude mice.\nThe total combined dose of the multiple IP injections of pHLIP-S-S-calicheamicin was ˜1.5 mg/kg. […]"}, "[3]": {"test_system": "HeLa human cervical tumors", "assay": "Tumor weight after treatment with pHLIP-S-S-exatecan", "assay_type": "in vivo, female athymic nude mice"}, "[4]": {"test_system": "MDA-MB-231 human triple negative breast or HeLa human cervical tumors", "assay": "Tumor weight after IP or IT treatment with pHLIP-S-S-mertansine", "assay_type": "in vivo, female athymic nude mice", "conditions": "for tumor weight reduction: vs non-treated control", "experimental": "FIG. 19C depicts a box plot presenting mean (filled square), median, 25 and 75 percentiles (box itself) and standard deviation values of the tumor weights collected after IP and IT treatment with pHLIP-S-S-mertansine compared to the control (non-treated) group. P-level was calculated using two-tailed test.\npHLIP-S-S-mertansine dissolved in PBS and was given as multiple intraperitoneal (IP) or intratumoral (IT) injections (once in 3-4 days) into mice bearing MDA-MB-231 human triple negative breast or HeLa human cervical tumors in flanks of female athymic nude mice. The total combined dose of the multiple IP injections of pHLIP-S-S-mertansine was […], and the total combined dose of the multiple IT injections of pHLIP-S-S-mertansine was ˜2.5 mg/kg. When the tumor reached a size of about 1 cm^3 (about 1 g) in the control (non-treated) group, the animals were sacrificed; tumors were collected (FIG. 19B) and weighted (FIG. 19C).\nIn a separate experiment, IT injections were performed, tumors disappeared and mice were left for several weeks."}},
  "note": "Side chains are listed from the residue outwards. Ends that are not written are not given here. * marks the point of attachment. mertansine = COc1cc2cc(c1Cl)N(C)C(=O)C[C@H](OC(=O)[C@H](C)N(C)C(=O)CCS*)[C@]1(C)O[C@H]1[C@H](C)[C@@H]1C[C@@](O)(NC(=O)O1)[C@H](OC)/C=C/C=C(\\C)C2; SPDP = linker on the drug for disulfide conjugation to Cys",
  "data": [
    {"compound": "CC[C@H](C)[C@@H]1NC(=O)CNC(=O)[C@@H]2Cc3c([nH]c4cc(O)ccc34)[S@+]([O-])C[C@H](NC(=O)CNC1=O)C(=O)N[C@@H](CC(N)=O)C(=O)N1C[C@H](O)C[C@H]1C(=O)N[C@@H]([C@@H](C)[C@@H](O)CO)C(=O)N2", "note": "[amanitin, alpha-amanitin]", "values": [
      {"measurement": "induction of cell death", "setting": "[1]", "result": "did not induce cell death"}
    ]},
    {"compound": "pHLIP-S-S-calicheamicin: Calicheamicin-SPDP conjugated with Cys residue of membrane-inserting end of pHLIP peptide ADDQNPWRAYLDLLFPTDTLLLDLLWCA (SEQ ID NO: 3) (ADDQNPWRAYLDLLFPTDTLLLDLLWC([SPDP-calicheamicin])A)", "values": [
      {"measurement": "tumor weight reduction", "setting": "[2]", "result": "About 88%"}
    ]},
    {"compound": "pHLIP-S-S-exatecan: Exatecan-SPDP conjugated with single Cys residue of membrane-inserting end of pHLIP peptide ADDQNPWRAYLDLLFPTDTLLLDLLWCA (SEQ ID NO: 3) (ADDQNPWRAYLDLLFPTDTLLLDLLWC([SPDP-exatecan])A)", "values": [
      {"measurement": "tumor weight reduction", "setting": "[3]; IP administration, multiple injections once in 3-4 days, vs non-treated control", "result": "50-60%"},
      {"measurement": "tumor weight reduction", "setting": "[3]; IT administration", "result": "more than 70%"}
    ]},
    {"compound": "pHLIP-S-S-mertansine: Mertansine (DM1) conjugated to membrane-inserting end of pHLIP peptide ADDQNPWRAYLDLLFPTDTLLLDLLWCA (SEQ ID NO: 3) via cleavable S-S link (ADDQNPWRAYLDLLFPTDTLLLDLLWC(mertansine)A)", "values": [
      {"measurement": "tumor disappearance", "setting": "[4]; after IT administration, in some cases", "result": "tumor disappeared"},
      {"measurement": "signs of toxicity", "setting": "[4]; in the course of IP or IT treatment", "result": "no signs of toxicity"},
      {"measurement": "tumor weight reduction", "setting": "[4]; multiple IP injections once in 3-4 days, total combined dose −10 mg/kg", "result": "About 60%"},
      {"measurement": "tumor weight reduction", "setting": "[4]; multiple IT injections once in 3-4 days, total combined dose ~2.5 mg/kg", "result": "more than 90%"},
      {"measurement": "cases with no tumor re-growth", "setting": "[4]; separate experiment, IT injections, tumors disappeared, mice left for several weeks", "result": 60, "unit": "%"}
    ]}
  ]
}
